The values that follow come from patent publication US6084074A, “Stabilized aqueous liquid preparations of blood coagulation factor XIII” (Centeon Pharma GmbH, priority 1995, dated 2000).

The subject of data set [1] is human blood coagulation factor XIII. The data set is described as follows: optimum concentration of stabilizers: residual factor XIII activity after 60° C. for 30 minutes (Example 1). In kind it is physicochemical. The source says: As for the measuring methods of factor XIII activity, fibrin formation, transglutaminase activity measurement, and immunologic measurement of antigen amount can be mentioned. Herein, the dansylcadaverine method (Nishida J., et al. Thromb. Res., vol. 36 pp. 123-131 (1984)) was adopted which can determine quantitatively the active factor XIII with high accuracy. Dansylcadaverine (purchased from YATRON) is a fluorescent amine which is the substrate of factor XIII, and forms dansylcadaverine-casein complex with casein by the action of factor XIII; the complex is separated by gel-filtration after the reaction and the factor XIII activity can be determined by the fluorescence intensity of the complex. The factor XIII activity is expressed by units; one unit is the amount of factor XIII which is contained in one milliliter of normal human plasma.
Optimum concentration of the present stabilizers was investigated.
To factor XIII produced according to the recombinant DNA technology as disclosed in DE 3804890 Al and incorporated by reference herein, (adjusted to the final titer of 100 units/ml with the water for injection according to the Pharmacopoeia of Japan) was added galactose, sucrose, D-sorbitol, sodium L-glutamate, sodium L-aspartate or L-histidine, and the mixture was warmed in a hot water bath at 60° C. for 30 minutes and then the activity of factor XIII was determined. Residual activity rate (%) of factor XIII was calculated, defining as 100% factor XIII activity of the preparation wherein factor XIII solution was adjusted to a titer of 100 units/ml.

In data set [2] the test system is factor XIII prepared by recombinant DNA technology. The data set is described as follows: storage stabilizer effect on factor XIII prepared by recombinant DNA technology. The format is physicochemical, human.

For `OC[C@@H](O)[C@@H](O)[C@H](O)[C@@H](O)CO` [D-Sorbitol], the “effective concentration of stabilizer” value in data set [1] is reported as 1.25-40 w/v %. The “Residual Activity Rate” value is recorded as 73.8% in data set [1] (additive conc. 1.25 w/v %); 73.9% in data set [1] (additive conc. 2.5 w/v %); 74.5% in data set [1] (additive conc. 5.0 w/v %); 94.0% in data set [1] (additive conc. 10 w/v %); 98.4% in data set [1] (additive conc. 15 w/v %); 96.0% in data set [1] (additive conc. 20 w/v %). Further, the “Residual Activity Rate” value in data set [1] (additive conc. 40 w/v %) worked out at 86.9%.

For `NCC(=O)O` [Glycine], the “effect as storage stabilizer (in words)” value in data set [2] is “ineffective”.

In the case of `N[C@@H](Cc1c[nH]cn1)C(=O)O` [L-Histidine, L-histidine], the “Residual Activity Rate” value in data set [1] (additive conc. 0.125 w/v %) was 62.2%; in data set [1] (additive conc. 0.25 w/v %), 71.6%; in data set [1] (additive conc. 0.5 w/v %), 78.4%; in data set [1] (additive conc. 1.0 w/v %), 97.4%; in data set [1] (additive conc. 2.0 w/v %), 65.3%.

For `N[C@@H](CC(=O)[O-])C(=O)[O-].[Na+].[Na+]` [Sodium L-aspartate, sodium L-aspartate], the “Residual Activity Rate” value in data set [1] (additive conc. 0.125 w/v %) stood at 83.3%; in data set [1] (additive conc. 0.25 w/v %), 80.9%; in data set [1] (additive conc. 0.5 w/v %), 93.3%; in data set [1] (additive conc. 1.0 w/v %), 101.1%; in data set [1] (additive conc. 2.0 w/v %), 66.5%; in data set [1] (additive conc. 5.0 w/v %), 58.8%. The “Residual Activity Rate” value in data set [1] (additive conc. 10 w/v %) was 55.4%.

In the case of `N[C@@H](CCC(=O)[O-])C(=O)[O-].[Na+].[Na+]` [Sodium L-glutamate, sodium L-glutamate], the “Residual Activity Rate” value turned out to be 76% in data set [1] (additive conc. 0.125 w/v %); 71.1% in data set [1] (additive conc. 0.25 w/v %); 98.6% in data set [1] (additive conc. 0.5 w/v %); 92.5% in data set [1] (additive conc. 1.0 w/v %); 87.8% in data set [1] (additive conc. 2.0 w/v %); 79.4% in data set [1] (additive conc. 5.0 w/v %). For the same molecule, the “Residual Activity Rate” value in data set [1] (additive conc. 10 w/v %) is 65.3%.

`OC[C@H]1O[C@@](CO)(O[C@H]2O[C@H](CO)[C@@H](O)[C@H](O)[C@H]2O)[C@@H](O)[C@@H]1O` [Sucrose]: the “effective concentration of stabilizer” value in data set [1] is given as 1.25-40 w/v %. The “Residual Activity Rate” value is 86.7% in data set [1] (additive conc. 1.25 w/v %); 88.6% in data set [1] (additive conc. 2.5 w/v %); 90.0% in data set [1] (additive conc. 5.0 w/v %); 99.0% in data set [1] (additive conc. 10 w/v %); 100.0% in data set [1] (additive conc. 15 w/v %); 96.2% in data set [1] (additive conc. 20 w/v %). Moreover, the “Residual Activity Rate” value in data set [1] (additive conc. 40 w/v %) turned out to be 75.7%.

Take `C[C@H](N)C(=O)O` [alanine]: the “effect as storage stabilizer (in words)” value in data set [2] was “ineffective”.

In the case of `NC(=O)CC[C@H](N)C(=O)O` [glutamine], the “effect as storage stabilizer (in words)” value in data set [2] is “ineffective”.

`O=C(O)[C@@H]1C[C@@H](O)CN1` [hydroxyproline]: in data set [2], the “effect as storage stabilizer (in words)” value was “ineffective”.

Turning to galactose, in data set [1], the “effective concentration of stabilizer” value was 1.25-40 w/v %.

For the molecule glucose, the “effect as storage stabilizer (in words)” value in data set [2] is given as “ineffective”.
